What was measured:
FLT3-ITD = molecular target: T1, FLT3-ITD (Homo sapiens, UniProt P36888); assay: Lanthascreen TR-FRET enzymatic assay, FLT3-ITD; format: binding; details: 1 hour at 25° C., 1% DMSO, read-out: Enzymology (IC50) FLT3-ITD
T1 construct: fused on or other part: GST tag (detected with the Europium-tagged anti-GST antibody)
T1 sequence (P36888 1-993): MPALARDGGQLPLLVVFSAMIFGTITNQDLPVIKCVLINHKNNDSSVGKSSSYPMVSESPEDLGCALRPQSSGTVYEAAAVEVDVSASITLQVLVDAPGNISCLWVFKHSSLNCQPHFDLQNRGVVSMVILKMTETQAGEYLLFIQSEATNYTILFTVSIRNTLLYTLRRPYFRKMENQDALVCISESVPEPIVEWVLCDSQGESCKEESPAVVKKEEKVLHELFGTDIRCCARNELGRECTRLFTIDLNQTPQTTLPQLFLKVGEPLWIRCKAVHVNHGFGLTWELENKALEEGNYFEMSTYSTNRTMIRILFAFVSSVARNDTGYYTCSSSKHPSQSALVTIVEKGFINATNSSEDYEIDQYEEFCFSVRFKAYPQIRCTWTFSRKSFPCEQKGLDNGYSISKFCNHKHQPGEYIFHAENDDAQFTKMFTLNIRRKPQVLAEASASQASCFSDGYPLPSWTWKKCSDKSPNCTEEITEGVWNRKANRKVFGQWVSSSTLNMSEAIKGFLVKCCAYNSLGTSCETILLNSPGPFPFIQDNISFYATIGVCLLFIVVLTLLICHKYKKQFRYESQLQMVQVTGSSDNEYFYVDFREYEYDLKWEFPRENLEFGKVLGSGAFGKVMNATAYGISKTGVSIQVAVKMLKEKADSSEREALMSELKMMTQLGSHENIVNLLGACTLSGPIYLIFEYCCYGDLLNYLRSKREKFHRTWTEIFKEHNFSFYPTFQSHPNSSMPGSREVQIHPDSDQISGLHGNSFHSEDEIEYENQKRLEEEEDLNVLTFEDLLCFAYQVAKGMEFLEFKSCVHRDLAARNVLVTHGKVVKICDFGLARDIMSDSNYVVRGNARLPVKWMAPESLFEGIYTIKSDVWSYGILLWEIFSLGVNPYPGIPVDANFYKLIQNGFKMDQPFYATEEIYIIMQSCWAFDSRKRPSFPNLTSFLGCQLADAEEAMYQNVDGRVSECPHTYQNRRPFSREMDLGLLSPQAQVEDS
Description: (§1) Recombinant FLT3 (#PV3182), JAK2 (#PV4210) and JAK3 (#PV3855) enzymes were purchased from Life Technologies. FLT3-ITD (#0778-0000-1) and FLT3^D835Y (#14-610) were respectively purchased from Proquinase and Merck Millipore.
(§2) The assays were conducted in 384-well plates based on Life Technologies Lanthascreen® TR-FRET methodologies.
FLT3-ITD or FLT3^D835Y assays: 15 nM of FLT3-ITD or FLT3^D835Y, 3 nM of the 236 kinase tracker (Life Technologies #PV5592) and 6 nM of the Europium-tagged anti-GST Lanthascreen® antibody are mixed into 15 μL total volume reaction mixture.
(§3) IC50s were determined from a 8-point dose-response curve spanning a >1000 fold concentration range using a 10 mM compound solution stock into pure DMSO (Sigma #D8418). The overall DMSO concentrations of tested solutions were 1%.
(§4) IC50s were generated with the software Prism (Graphpad).

JAK3 = molecular target: T2, JAK3 (Homo sapiens, UniProt P52333); assay: Lanthascreen TR-FRET enzymatic assay, JAK3; format: binding; details: recombinant JAK3, 1 hour at 25° C., 1% DMSO; read-out: Enzymology (IC50) JAK3
T2 construct: purchased Life Technologies PV3855
T2 sequence (P52333 1-1124): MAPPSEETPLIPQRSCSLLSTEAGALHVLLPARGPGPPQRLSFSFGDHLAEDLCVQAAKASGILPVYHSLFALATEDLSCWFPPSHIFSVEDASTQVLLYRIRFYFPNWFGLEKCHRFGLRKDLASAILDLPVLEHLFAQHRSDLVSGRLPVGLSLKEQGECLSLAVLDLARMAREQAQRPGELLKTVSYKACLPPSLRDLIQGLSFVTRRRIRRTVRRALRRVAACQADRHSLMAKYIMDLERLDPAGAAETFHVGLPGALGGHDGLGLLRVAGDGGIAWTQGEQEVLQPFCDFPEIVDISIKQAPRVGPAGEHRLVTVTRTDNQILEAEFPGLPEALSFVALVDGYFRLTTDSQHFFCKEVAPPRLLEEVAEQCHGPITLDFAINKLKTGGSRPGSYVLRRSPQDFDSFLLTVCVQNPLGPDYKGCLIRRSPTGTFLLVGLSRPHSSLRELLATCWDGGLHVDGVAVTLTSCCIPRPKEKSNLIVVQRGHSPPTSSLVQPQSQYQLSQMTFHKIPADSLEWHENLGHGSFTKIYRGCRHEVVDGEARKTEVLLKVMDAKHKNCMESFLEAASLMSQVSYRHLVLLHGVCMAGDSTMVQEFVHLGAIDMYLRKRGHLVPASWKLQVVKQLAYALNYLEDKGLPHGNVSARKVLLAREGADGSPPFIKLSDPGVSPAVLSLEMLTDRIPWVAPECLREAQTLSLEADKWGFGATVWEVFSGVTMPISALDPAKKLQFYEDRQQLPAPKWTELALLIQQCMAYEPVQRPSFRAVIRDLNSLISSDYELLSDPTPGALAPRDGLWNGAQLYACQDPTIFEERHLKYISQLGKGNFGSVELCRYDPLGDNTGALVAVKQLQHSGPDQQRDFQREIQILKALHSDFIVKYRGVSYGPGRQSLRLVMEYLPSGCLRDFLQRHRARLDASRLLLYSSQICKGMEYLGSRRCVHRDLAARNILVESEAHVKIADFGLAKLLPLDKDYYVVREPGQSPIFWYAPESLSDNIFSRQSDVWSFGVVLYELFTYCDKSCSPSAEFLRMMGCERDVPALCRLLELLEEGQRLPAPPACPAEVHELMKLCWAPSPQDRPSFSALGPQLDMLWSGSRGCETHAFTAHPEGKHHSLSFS
Description: as §1, §2
JAK3 assays: 15 nM of […], 3 nM of the 236 kinase tracker (Life Technologies #PV5592) and 6 nM of the Europium-tagged anti-GST Lanthascreen® antibody are mixed into 15 μL total volume reaction mixture.
as §3, §4

MOLM-13 cells = assay: Antiproliferative activity assay (ATPLite), MOLM-13; format: cell-based; details: Homo sapiens, MOLM-13 (AML, FLT3-ITD), 72 h, read-out: Inhibition of proliferation (EC50) MOLM13
Description: Cell lines MV4-11 and MOLM-13 are grown according to conditions depicted in Table 2 following the provider recommendations.
Assays are being run into 96-well plates. Cells are passaged at Day 0, seeded at Day 1 and added with increasing quantities of the compounds to evaluate. Plates are incubated for 72 h at 37° C. under a 5% CO2 atmosphere.
Half-logarithmic dilutions from compounds stock solutions in DMSO (Sigma #D8414) were done in order to obtain 0.1% DMSO solutions.
Cellular viability is measured at Day 4 with the ATPLite (Perkin Elmer #6016947) kit.

IC50 (FLT3-ITD)	IC50 (JAK3)	EC50 (MOLM-13 cells)	Structure (SMILES)
< 25 nM	25 to 100 nM	25 to 100 nM	Cn1c(=O)c2cc(N)ccc2c2nc(Nc3cccc(N)c3)ncc21 [Compound C2, 8-amino-2-((3-aminophenyl)amino)-5-methylpyrimido[5,4-c]isoquinolin-6(5H)-one]
< 25 nM	25 to 100 nM	< 25 nM	CN1CCN(c2ccc(Nc3ncc4c(n3)c3ccc(N)cc3c(=O)n4C)cc2)CC1 [Compound C4, 8-amino-5-methyl-2-((4-(4-methylpiperazin-1-yl)phenyl)amino)pyrimido[5,4-c]isoquinolin-6(5H)-one]
< 25 nM	25 to 100 nM	25 to 100 nM	CN1CCN(c2cccc(Nc3ncc4c(n3)c3ccc(N)cc3c(=O)n4C)c2)CC1 [Compound C6, 8-amino-5-methyl-2-((3-(4-methylpiperazin-1-yl)phenyl)amino)pyrimido[5,4-c]isoquinolin-6(5H)-one]
< 25 nM	25 to 100 nM	100 to 1000 nM	COc1cc2c(cc1N)c(=O)n(C)c1cnc(Nc3ccc(N4CCN(C)CC4)cc3)nc21 [Compound C10, 8-amino-9-methoxy-5-methyl-2-((4-(4-methylpiperazin-1-yl)phenyl)amino) pyrimido[5,4-c]isoquinolin-6(5H)-one]
< 25 nM	25 to 100 nM	100 to 1000 nM	Cn1c(=O)c2cc(N)ccc2c2nc(Nc3ccc(F)c(N)c3)ncc21 [Compound C22, 8-amino-2-((3-amino-4-fluorophenyl)amino)-5-methylpyrimido[5,4-c]isoquinolin-6(5H)-one]
25 to 100 nM	100 to 1000 nM	25 to 100 nM	COc1cc2c(cc1N)c(=O)n(C)c1cnc(Nc3cc(N)cc(F)c3)nc21 [Compound C26, 8-amino-2-((3-amino-5-fluorophenyl)amino)-9-methoxy-5-methylpyrimido [5,4-c]isoquinolin-6(5H)-one]
< 25 nM	100 to 1000 nM	100 to 1000 nM	COc1cc2c(cc1N)c(=O)n(C)c1cnc(Nc3ccc(F)c(N)c3)nc21 [Compound C28, 8-amino-2-((3-amino-4-fluorophenyl)amino)-9-methoxy-5-methylpyrimido [5,4-c]isoquinolin-6(5H)-one]
< 25 nM	100 to 1000 nM	100 to 1000 nM	Cn1c(=O)c2cc(N)ccc2c2nc(Nc3ccc(OCCN4CCCC4)cc3)ncc21 [Compound C34, 8-amino-5-methyl-2-((4-(2-(pyrrolidin-1-yl)ethoxy)phenyl)amino)pyrimido[5,4-c]isoquinolin-6(5H)-one]
< 25 nM	100 to 1000 nM	100 to 1000 nM	COc1cc2c(cc1N)c(=O)n(C)c1cnc(Nc3ccc(OCCN4CCCC4)cc3)nc21 [Compound C42, 8-amino-9-methoxy-5-methyl-2-((4-(2-(pyrrolidin-1-yl)ethoxy)phenyl)amino) pyrimido[5,4-c]isoquinolin-6(5H)-one]

— patent US9944641B2, “Isoquinolinone derivatives useful in the treatment of cancer” (PIERRE FABRE MEDICAMENT, priority 2014, dated 2018)
